≈ marks a conversion by molar mass, not a printed value. Entries after “also recorded” stand apart in the source; their conditions may differ. Structures can show the parent of a compound that is named as a salt. Where two headings read alike, the source gives them in different places. One block for each molecule: values may come before it.
Columns and labels:
[1] = test system: S. epidermidis SE1; assay: MIC, extended Gram-positive panel; assay type: cell-based; conditions: for MIC: S. epidermidis SE1, in µg/mL
[2] = test system: M6; assay: MIC, microdilution broth method; assay type: cell-based
[3] = test system: multidrug resistant strains; assay: Reserpine growth assay in several multidrug resistant strains; assay type: cell-based; conditions: FIG. 27
[4] = test system: S. aureus SA1; assay type: cell-based; conditions: for MIC: S. aureus SA1
[5] = test system: S. aureus SA10; assay: MIC, extended Gram-positive panel; assay type: cell-based; conditions: for MIC: S. aureus SA10, in µg/mL
[6] = test system: S. aureus SA9; assay: MIC, extended Gram-positive panel; assay type: cell-based; conditions: for MIC: S. aureus SA9
[7] = test system: S. aureus SA4; assay: MIC, extended Gram-positive panel; assay type: cell-based; conditions: for MIC: S. aureus SA4
[8] = test system: E. faecalis EF1; assay: MIC, extended Gram-positive panel; assay type: cell-based; conditions: for MIC: E. faecalis EF1
[9] = test system: E. faecium EF2; assay: MIC, extended Gram-positive panel; assay type: cell-based; conditions: for MIC: E. faecium EF2, in µg/mL
[10] = test system: S. aureus SA6; assay: MIC, extended Gram-positive panel; assay type: cell-based; conditions: for MIC: S. aureus SA6
[11] = test system: S. aureus SA3; assay: MIC, extended Gram-positive panel; assay type: cell-based; conditions: for MIC: S. aureus SA3
[12] = test system: S. haemolyticus SH1; assay: MIC, extended Gram-positive panel; assay type: cell-based; conditions: for MIC: S. haemolyticus SH1
[13] = test system: S. aureus SA7; assay: MIC, extended Gram-positive panel; assay type: cell-based; conditions: for MIC: S. aureus SA7
[14] = test system: S. aureus SA8; assay: MIC, extended Gram-positive panel; assay type: cell-based; conditions: for MIC: S. aureus SA8
[15] = test system: S. aureus SA2; assay type: cell-based; conditions: for MIC: S. aureus SA2, in µg/mL
[16] = test system: S. aureus SA5; assay: MIC, extended Gram-positive panel; assay type: cell-based; conditions: for MIC: S. aureus SA5
[17] = test system: EMRSA 15 strain; assay: Reserpine assay; assay type: cell-based, S. aureus; conditions: compound at 0.25×MIC with reserpine
Protocol: (§1) A simple plate based method was used as described by Beyer et al. (24). […] Reserpine was added at a final concentration of 10 µg/mL (made up at 40 μg/mL in TSB, 50 μL per well). The bacteria were added at an OD of 0.01 in TSB (100 μL/well). The plate was a normal clear plate as used for MICs. OD was read every 30 minutes for 9 hours (the literature states 7 hours, but this is strain-dependent). Blanks of TSB and water were added to ensure no infections were present.
(§2) The mechanism of inhibition for reserpine involves direct binding to and competitive inhibition of the efflux pump during drug/H^+ antiport. This assay was validated as a method for testing active efflux of fluoroquinolones in Staphylococcus strains by Beyer et al. (24).

[18] = test system: MSSA 9144 strain; assay: Reserpine assay; assay type: cell-based, S. aureus; conditions: compound at 0.25×MIC with reserpine
Protocol: as §1, §2

[19] = test system: EMRSA16; assay: MIC, microdilution broth method; assay type: cell-based, Staphylococcus aureus
[20] = test system: EMRSA15; assay: MIC, microdilution broth method; assay type: cell-based, Staphylococcus aureus
[21] = test system: VRE12204; assay: MIC, microdilution broth method; assay type: cell-based, E. faecium
[22] = test system: MSSA9144; assay: MIC, microdilution broth method; assay type: cell-based, S. aureus
[23] = test system: VSE775; assay: MIC, microdilution broth method; assay type: cell-based, E. faecalis
[24] = test system: VRE12201; assay: MIC, microdilution broth method; assay type: cell-based, E. faecalis
[25] = test system: PA01; assay: MIC, microdilution broth method; assay type: cell-based, Pseudomonas aeruginosa
[26] = test system: Ab17978; assay: MIC, microdilution broth method; assay type: cell-based
[27] = test system: EC12923; assay: MIC, microdilution broth method; assay type: cell-based
[28] = test system: KP13368; assay: MIC, microdilution broth method; assay type: cell-based; conditions: in µg/mL
[29] = test system: AYE; assay: MIC, microdilution broth method; assay type: cell-based, Acinetobacter baumannii; conditions: Normal (without PMBN), in µg/mL
[30] = EC12923, Normal (without PMBN), in µg/mL

Compound: O=C(O)c1cn(C2CC2)c2cc(N3CCNCC3)c(F)cc2c1=O [Ciprofloxacin, ciprofloxacin, reference compound]
- MIC [1]: 0.5-1

- MIC ([2]; Klebsiella pneumoniae (M6), read-out: MIC): 0.5 µg/mL (≈ 1.18 µM)
Compound: C[C@H]1COc2c(N3CC[C@@H](Nc4cnccn4)C3)c(F)cc3c(=O)c(C(=O)O)cn1c23 [KSN-BL1]

Compound: Cc1cc(C)nc(N[C@@H]2CCN(c3c(F)cc4c(=O)c(C(=O)O)cn5c4c3OC[C@@H]5C)C2)n1 [KSN-BL7]
- efflux from the bacteria (reserpine growth assay) [3]: reduced efflux

- MIC [4]: 2 µg/mL (≈ 4.24 µM)
- MIC [5]: 2
- MIC [6]: 2 µg/mL (≈ 4.24 µM)
- MIC [7]: 2 µg/mL (≈ 4.24 µM)
- MIC [8]: 2 µg/mL (≈ 4.24 µM)
- MIC [9]: 2
- MIC [10]: 2 µg/mL (≈ 4.24 µM)
- MIC [11]: 2 µg/mL (≈ 4.24 µM)
- MIC [13]: 2 µg/mL (≈ 4.24 µM)
- MIC [14]: 2 µg/mL (≈ 4.24 µM)
- MIC [15]: 0.5
- MIC [16]: 2 µg/mL (≈ 4.24 µM)
Compound: O=C(O)c1cn(C2CC2)c2cc(N3CCN(Cc4cccc5ccccc45)CC3)c(F)cc2c1=O [ML-77-005]
- MIC [12]: 4 µg/mL (≈ 8.48 µM)

- MIC [4]: 4 µg/mL (≈ 8.7 µM)
- MIC [5]: 2
- MIC [6]: 2 µg/mL (≈ 4.35 µM)
- MIC [7]: 2 µg/mL (≈ 4.35 µM)
- MIC [8]: 4 µg/mL (≈ 8.7 µM)
- MIC [9]: 2-4
- MIC [10]: 2 µg/mL (≈ 4.35 µM)
- MIC [1]: 1
- MIC [11]: 2 µg/mL (≈ 4.35 µM)
- MIC [13]: 2 µg/mL (≈ 4.35 µM)
- MIC [14]: 2 µg/mL (≈ 4.35 µM)
- MIC [15]: 1
- MIC [16]: 2 µg/mL (≈ 4.35 µM)
Compound: CCn1cc(C(=O)O)c(=O)c2cc(F)c(N3CCN(Cc4cccc5ccccc45)CC3)cc21 [ML-77-021]
- Fold decrease ([4]; SA1, MIC of ML-77-005 vs CIP, of ML-77-021 vs NOR): ≥32
- Fold decrease ([5]; SA10, MIC of ML-77-005 vs CIP, of ML-77-021 vs NOR): 64
- Fold decrease ([6]; SA9, MIC of ML-77-005 vs CIP, of ML-77-021 vs NOR): ≥64
- Fold decrease ([7]; SA4, MIC of ML-77-005 vs CIP, of ML-77-021 vs NOR): 32
- Fold decrease ([8]; EF1, MIC of ML-77-005 vs CIP, of ML-77-021 vs NOR): ≥32
- Fold decrease ([9]; EF2, MIC of ML-77-005 vs CIP, of ML-77-021 vs NOR): ≥32
- Fold decrease ([10]; SA6, MIC of ML-77-005 vs CIP, of ML-77-021 vs NOR): ≥64
- efflux by the strain (reserpine assay) [17]: cannot be effluxed
- efflux by the strain (reserpine assay) ([17]; listed as napthyl-linked norfloxacin): not effluxed
- efflux by the strain (reserpine assay) [18]: cannot be effluxed; also recorded: not effluxed
- Fold decrease ([1]; SE1, MIC of ML-77-005 vs CIP, of ML-77-021 vs NOR): 1-4
- Fold decrease ([11]; SA3, MIC of ML-77-005 vs CIP, of ML-77-021 vs NOR): 32
- MIC [12]: 4 µg/mL (≈ 8.7 µM)
- Fold decrease ([12]; SH1, MIC of ML-77-005 vs CIP, of ML-77-021 vs NOR): 32
- Fold decrease ([13]; SA7, MIC of ML-77-005 vs CIP, of ML-77-021 vs NOR): ≥64
- Fold decrease ([14]; SA8, MIC of ML-77-005 vs CIP, of ML-77-021 vs NOR): 64
- Fold decrease ([15]; SA2, MIC of ML-77-005 vs CIP, of ML-77-021 vs NOR): 8-64
- Fold decrease ([16]; SA5, MIC of ML-77-005 vs CIP, of ML-77-021 vs NOR): ≥64

Compound: CCn1cc(C(=O)O)c(=O)c2cc(F)c(N3CCN(Cc4cccc5ccccc45)CC3)nc21 [ML-77-025]
- fold potentiation of MIC ([19]; EMRSA16, vs parent fluoroquinolone): 64-128 fold
- fold potentiation of MIC ([20]; EMRSA15, vs parent fluoroquinolone): 64-128 fold

- MIC ([2]; M6, in µg/mL): 16-32
- MIC [21]: 2 µg/mL (≈ 4.35 µM)
- MIC ([19]; EMRSA16): 4 µg/mL (≈ 8.7 µM)
- MIC [22]: 0.25 µg/mL (≈ 0.544 µM)
- MIC ([23]; VSE775): 4 µg/mL (≈ 8.7 µM)
- MIC ([24]; VRE12201, in µg/mL): 4
- MIC ([20]; EMRSA15, in µg/mL): 4
Compound: CCn1cc(C(=O)O)c(=O)c2cc(F)c(N3CCN(Cc4ccc5ccccc5c4)CC3)cc21 [ML-77-31]

- MIC ([19]; EMRSA16): 8 µg/mL (≈ 16.8 µM)
- MIC [22]: 8 µg/mL (≈ 16.8 µM)
- MIC ([23]; VSE775): 8 µg/mL (≈ 16.8 µM)
- MIC ([24]; VRE12201, in µg/mL): 16
- MIC ([20]; EMRSA15, in µg/mL): 8
Compound: CCn1cc(C(=O)O)c(=O)c2cc(F)c(N3CCN(Cc4ccc(F)c5ccccc45)CC3)cc21 [ML-77-49]

Compound: CCn1cc(C(=O)O)c(=O)c2cc(F)c(N3CCN(Cc4ccc(S(=O)(=O)NCCc5c[nH]c6ccccc56)cc4)CC3)cc21 [ML-77-146]
- MIC +PMBN ([2]; M6, +PMBN): 28
- MIC +PMBN ([25]; PA01, +PMBN): 0.25
- MIC +PMBN ([26]; Ab17978, +PMBN): 4

Compound: C[C@H]1COc2c(N3CCN(c4ccncn4)CC3)c(F)cc3c(=O)c(C(=O)O)cn1c23 [ML-83-001, (S)-9-fluoro-3-methyl-7-oxo-10-(4-(pyrimidin-4-yl)piperazin-1-yl)-2,3-dihydro-7H-[1,4]oxazino[2,3,4-ij]quinoline-6-carboxylic Acid]
- MIC [27, 30]: 1-4

Compound: Cc1cc(N2CCN(c3c(F)cc4c(=O)c(C(=O)O)cn5c4c3OC[C@@H]5C)CC2)nc(C(C)C)n1 [ML-83-012, (S)-9-fluoro-10-(4-(2-isopropyl-6-methylpyrimidin-4-yl)piperazin-1-yl)-3-methyl-7-oxo-2,3-dihydro-7H-[1,4]oxazino[2,3,4-ij]quinoline-6-carboxylic Acid Hydrochloride]
- MIC ([2]; Klebsiella pneumoniae, Klebsiella pneumoniae (M6)): 16 µg/mL
- MIC ([2]; M6, Gram-negative, in µg/mL): 16
- MIC ([25]; Pseudomonas aeruginosa, Pseudomonas aeruginosa (PA01)): 32 µg/mL
- MIC ([28]; Gram-negative): 64
- MIC ([19]; EMRSA16, Gram-positive): 16 µg/mL
- MIC ([19]; Staphylococcus aureus, Staphylococcus aureus (EMRSA16)): 2 µg/mL
- MIC ([23]; Enterococcus faecalis): 0.5 µg/mL
- MIC ([23]; VSE775, Gram-positive): 1 µg/mL
- MIC ([24]; Enterococcus faecalis, Enterococcus (VRE12201)): ≤ 0.125 µg/mL
- MIC ([24]; VRE12201, Gram-positive, in µg/mL): 0.5-1
- MIC ([27]; Escherichia coli, Escherichia coli (EC12923)): 4 µg/mL
- MIC ([20]; EMRSA15, Gram-positive, in µg/mL): 16
- MIC ([20]; Staphylococcus aureus): 2 µg/mL
- MIC ([26]; Acinetobacter baumannii, Acinetobacter baumannii (AB17978)): 8 µg/mL

Compound: C[C@H]1COc2c(N3CCN(c4ccncc4)CC3)c(F)cc3c(=O)c(C(=O)O)cn1c23 [ML-83-019]
- MIC ([2]; M6, Normal (without PMBN), in µg/mL): 64
- MIC [27, 30]: 32
- MIC ([26]; Ab17978, Normal (without PMBN)): 64 µg/mL (≈ 151 µM)

Compound: C[C@H]1COc2c(N3CCC(n4cccn4)CC3)c(F)cc3c(=O)c(C(=O)O)cn1c23 [ML-83-041, (S)-10-(4-(1H-pyrazol-1-yl)piperidin-1-yl)-9-fluoro-3-methyl-7-oxo-2,3-dihydro-7H-[1,4]oxazino[2,3,4-ij]quinoline-6-carboxylic Acid]
- MIC ([28]; Normal (without PMBN)): 16-32
- MIC [29]: 64-128
- MIC [27, 30]: 1-2

Compound: CCn1cc(C(=O)O)c(=O)c2cc(F)c(N3CCNCC3)cc21 [NOR]
- MIC [7]: 64 µg/mL (≈ 200 µM)
- MIC [1]: 1-4
- MIC [11]: 64 µg/mL (≈ 200 µM)
- MIC [15]: 8-64

Compound: CCn1cc(C(=O)O)c(=O)c2cc(F)c(N3CCNCC3)cc21 [Norfloxacin, norfloxacin, reference compound]
- efflux by the strain (reserpine assay) [17]: effluxed
- efflux by the strain (reserpine assay) [18]: effluxed

From patent US20210261570A1, “ANTIBIOTIC RESISTANCE BREAKERS” (KING'S COLLEGE LONDON, priority 2017, published 2021)
